In PMC10349072, “Distinct evolution of type I glutamine synthetase in Plasmodium and its species-specific requirement” (Nature Communications, 2023):

How the values were obtained:
[1] = molecular target: T1, Plasmodium falciparum glutamine synthetase lacking first peptide insert (ΔI1rPfGS) (Plasmodium falciparum, UniProt C0H551, DEL174-196); format: biochemical
T1 construct: gene PF3D7_0922600; recombinant, 6xHis tag, first peptide insert (amino acids 174–196) deleted

[2] = molecular target: T2, Plasmodium berghei glutamine synthetase (rPbGS) (Plasmodium berghei, UniProt A0A509ANX1); assay: GS enzyme assay (Pi release/HPLC) with pre-incubation with ATP and MgCl2; kinetic Ki; format: biochemical
T2 construct: gene PBANKA_0823500; recombinant with N-terminal 6xHis tag, expressed in E. coli
T2 sequence (A0A509ANX1 1-553): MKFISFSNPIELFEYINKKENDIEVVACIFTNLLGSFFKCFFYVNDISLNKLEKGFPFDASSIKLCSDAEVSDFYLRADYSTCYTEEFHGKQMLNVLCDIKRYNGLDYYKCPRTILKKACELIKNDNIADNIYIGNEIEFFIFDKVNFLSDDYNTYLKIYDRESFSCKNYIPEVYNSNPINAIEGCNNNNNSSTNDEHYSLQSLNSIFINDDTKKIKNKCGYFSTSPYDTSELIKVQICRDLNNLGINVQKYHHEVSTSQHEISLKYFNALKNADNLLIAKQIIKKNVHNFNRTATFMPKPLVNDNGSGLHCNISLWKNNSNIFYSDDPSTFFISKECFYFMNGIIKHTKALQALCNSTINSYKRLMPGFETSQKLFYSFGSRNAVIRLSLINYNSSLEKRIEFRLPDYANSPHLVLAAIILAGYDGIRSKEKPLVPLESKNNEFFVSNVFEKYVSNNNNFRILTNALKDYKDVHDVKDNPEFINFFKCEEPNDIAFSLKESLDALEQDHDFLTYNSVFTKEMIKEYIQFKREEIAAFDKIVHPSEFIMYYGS

[3] = molecular target: T3, Plasmodium falciparum glutamine synthetase (rPfGS) (Plasmodium falciparum, UniProt C0H551); assay: biochemical
T3 construct: gene PF3D7_0922600
T3 sequence (C0H551 1-543): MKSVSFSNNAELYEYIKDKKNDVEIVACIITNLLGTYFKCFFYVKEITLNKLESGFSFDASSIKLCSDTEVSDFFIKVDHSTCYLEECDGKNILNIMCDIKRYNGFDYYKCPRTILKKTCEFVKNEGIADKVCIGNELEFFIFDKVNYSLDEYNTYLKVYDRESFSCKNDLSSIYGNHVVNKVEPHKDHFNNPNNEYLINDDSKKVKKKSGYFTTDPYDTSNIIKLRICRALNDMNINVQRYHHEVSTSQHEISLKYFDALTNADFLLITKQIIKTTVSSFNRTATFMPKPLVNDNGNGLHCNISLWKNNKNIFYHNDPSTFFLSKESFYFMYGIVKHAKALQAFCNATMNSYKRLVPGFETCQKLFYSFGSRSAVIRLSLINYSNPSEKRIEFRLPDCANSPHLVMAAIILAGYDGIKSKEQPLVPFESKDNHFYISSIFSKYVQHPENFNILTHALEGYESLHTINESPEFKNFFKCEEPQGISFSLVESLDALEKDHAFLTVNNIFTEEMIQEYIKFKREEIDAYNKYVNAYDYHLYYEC

[4] = molecular target: T4, E. coli glutamine synthetase (rE. coli GS) (Escherichia coli, UniProt P0A9C5); assay: feedback inhibition enzyme assay at […]; format: biochemical
T4 construct: gene glnA; recombinant with 6xHis tag
T4 sequence (P0A9C5 2-469): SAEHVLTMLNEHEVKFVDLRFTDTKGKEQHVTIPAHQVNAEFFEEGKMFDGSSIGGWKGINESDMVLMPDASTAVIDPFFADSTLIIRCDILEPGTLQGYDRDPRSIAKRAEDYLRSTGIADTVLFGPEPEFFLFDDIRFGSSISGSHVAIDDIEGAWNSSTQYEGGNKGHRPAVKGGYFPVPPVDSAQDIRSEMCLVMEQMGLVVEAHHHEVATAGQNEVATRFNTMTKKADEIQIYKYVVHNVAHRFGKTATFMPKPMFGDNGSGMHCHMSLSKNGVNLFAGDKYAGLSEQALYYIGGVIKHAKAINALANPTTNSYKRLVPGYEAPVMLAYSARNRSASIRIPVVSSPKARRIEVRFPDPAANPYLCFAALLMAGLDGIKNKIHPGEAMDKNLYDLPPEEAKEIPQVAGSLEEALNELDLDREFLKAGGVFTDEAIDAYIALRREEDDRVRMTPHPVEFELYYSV

CP(=O)(O)CC[C@H](N)C(=O)O [PPT, Phosphinothricin]
GS enzyme assay, percent activity vs control [1]: ΔI1rPfGS behaved like rPfGS in terms of specific activity (Fig. 3b), inhibition by MSO and PPT (Fig. 3c)
Ki [2]: 8.07 ± 3.31 µM
Ki [3]: 2.31 ± 1.1 µM

CS(=N)(=O)CC[C@H](N)C(=O)O (stereo partly drawn) [MSO, L-Methionine sulfoximine]
GS enzyme assay, percent activity vs control [1]: ΔI1rPfGS behaved like rPfGS in terms of specific activity (Fig. 3b), inhibition by MSO and PPT (Fig. 3c)
Ki [2]: 5.44 ± 1.07 µM

Nc1ncnc2c1ncn2[C@@H]1O[C@H](COP(=O)(O)O)[C@@H](O)[C@H]1O [AMP, adenosine monophosphate]
% [4]: 30–40% inhibition at 5 mM

C[C@H](N)C(=O)O [alanine]
% [4]: 30–40% inhibition at 5 mM
